One data set has as its target Tryptase (Homo sapiens, UniProt Q9BZJ3+Q15661+Q9NRR2). The data set is described as follows: Inhibitory activity of compound against human tryptase was determined. Type of data set: protein assay.
The target of data set [1] is Tissue-type plasminogen activator (Homo sapiens, UniProt P00750). Nature of the data set: Inhibitory activity of compound against tissue type plasminogen activator was determined.
A further data set concerns the target Coagulation factor X (Homo sapiens, UniProt P00742). The data set is described as follows: Inhibitory activity of compound against Coagulation factor X was determined.
The target of another data set is Plasminogen (Rattus norvegicus, UniProt Q01177). Nature of the data set: Inhibitory activity of compound against Plasmin was determined.
For a further data set, the target named is Prothrombin (Homo sapiens, UniProt P00734). Nature of the data set: Inhibitory activity of compound against Thrombin was determined.
For a further data set, the target named is Serine protease 1 (Homo sapiens, UniProt P07477). The data set is described as follows: Inhibitory activity of compound against Trypsin was determined.
Data set [2] concerns the target Urokinase-type plasminogen activator (Homo sapiens, UniProt P00749). Nature of the data set: Inhibitory activity of compound against Urokinase-type plasminogen activator was determined.
Data set [3] is described as follows: Half-life of compound was determined at pH 7. Type of data set: ADME.
Data set [4] is described as follows: Half-life of compound was determined at pH 9. Type of data set: ADME.

As usually defined, the IC50 is the point on the concentration scale where inhibition reaches its midpoint. High values mean a need for much substance, low ones inhibition by little substance. What is called half-life is the time needed for the level to fall by half in the phase considered. One may read the pKa as the pH at which an ionisable group is half protonated. The low end stands for a group that gives up its proton readily, the high end for a group that holds its proton tightly.

Sequence of Serine protease 1 (P07477 whole entry): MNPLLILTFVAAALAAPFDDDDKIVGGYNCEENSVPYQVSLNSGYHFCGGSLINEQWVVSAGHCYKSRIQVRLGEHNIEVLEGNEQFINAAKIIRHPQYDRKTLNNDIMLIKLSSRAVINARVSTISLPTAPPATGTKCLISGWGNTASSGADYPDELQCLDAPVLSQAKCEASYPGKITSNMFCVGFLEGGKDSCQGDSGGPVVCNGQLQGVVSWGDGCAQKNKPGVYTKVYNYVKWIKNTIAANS
Sequence of Tissue-type plasminogen activator (P00750 whole entry): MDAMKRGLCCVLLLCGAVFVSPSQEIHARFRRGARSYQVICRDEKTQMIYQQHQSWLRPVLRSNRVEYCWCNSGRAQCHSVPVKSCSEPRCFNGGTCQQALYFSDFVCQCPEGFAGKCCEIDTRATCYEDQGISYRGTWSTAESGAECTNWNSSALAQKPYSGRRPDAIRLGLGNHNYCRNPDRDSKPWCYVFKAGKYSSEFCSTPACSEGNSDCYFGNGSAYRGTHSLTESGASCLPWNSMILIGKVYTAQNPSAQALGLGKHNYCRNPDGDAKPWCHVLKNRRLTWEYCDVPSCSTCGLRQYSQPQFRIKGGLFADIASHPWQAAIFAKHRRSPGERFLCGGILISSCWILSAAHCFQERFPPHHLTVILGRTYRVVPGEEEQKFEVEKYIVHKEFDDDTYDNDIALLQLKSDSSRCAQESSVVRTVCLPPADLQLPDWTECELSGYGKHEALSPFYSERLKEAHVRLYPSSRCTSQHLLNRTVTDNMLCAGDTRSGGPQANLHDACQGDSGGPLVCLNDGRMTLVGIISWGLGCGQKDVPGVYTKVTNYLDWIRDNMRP
Sequence of Coagulation factor X (P00742 41-179 limits assumed): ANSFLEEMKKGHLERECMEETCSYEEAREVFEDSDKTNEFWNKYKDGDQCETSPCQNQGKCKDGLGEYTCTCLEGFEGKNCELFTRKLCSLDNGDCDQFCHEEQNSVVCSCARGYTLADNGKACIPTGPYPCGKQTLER
Sequence of Coagulation factor X (P00742 235-488 limits assumed): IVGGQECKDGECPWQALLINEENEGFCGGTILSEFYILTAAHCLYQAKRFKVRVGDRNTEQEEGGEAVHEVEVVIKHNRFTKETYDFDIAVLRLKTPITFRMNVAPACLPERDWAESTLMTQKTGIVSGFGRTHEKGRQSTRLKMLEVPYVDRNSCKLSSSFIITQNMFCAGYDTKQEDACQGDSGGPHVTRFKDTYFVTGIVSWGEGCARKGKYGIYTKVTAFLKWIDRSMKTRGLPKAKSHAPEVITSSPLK
Sequence of Plasminogen (Q01177 97-581 limits assumed): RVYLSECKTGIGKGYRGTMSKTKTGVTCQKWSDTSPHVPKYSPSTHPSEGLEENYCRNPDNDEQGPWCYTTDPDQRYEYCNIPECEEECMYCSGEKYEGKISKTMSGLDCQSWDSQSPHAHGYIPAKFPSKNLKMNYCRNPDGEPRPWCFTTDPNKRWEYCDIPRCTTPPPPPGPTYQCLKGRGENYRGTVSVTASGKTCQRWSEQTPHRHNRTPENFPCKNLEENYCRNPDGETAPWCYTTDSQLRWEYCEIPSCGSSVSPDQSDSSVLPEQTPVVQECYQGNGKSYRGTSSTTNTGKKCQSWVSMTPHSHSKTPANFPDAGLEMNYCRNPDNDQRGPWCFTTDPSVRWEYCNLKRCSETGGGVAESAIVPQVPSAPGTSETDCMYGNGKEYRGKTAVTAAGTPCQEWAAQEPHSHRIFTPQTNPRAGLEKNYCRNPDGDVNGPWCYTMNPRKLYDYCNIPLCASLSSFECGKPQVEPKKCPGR
Sequence of Plasminogen (Q01177 582-812 limits assumed): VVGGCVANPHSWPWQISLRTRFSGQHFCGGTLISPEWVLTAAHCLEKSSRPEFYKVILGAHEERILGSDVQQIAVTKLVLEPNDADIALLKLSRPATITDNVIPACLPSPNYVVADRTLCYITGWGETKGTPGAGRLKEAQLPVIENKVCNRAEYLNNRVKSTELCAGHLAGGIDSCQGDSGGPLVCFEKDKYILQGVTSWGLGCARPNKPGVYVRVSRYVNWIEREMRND

For `CC(C)C(OC(=O)N1CCN(C(=O)N2C(=O)[C@H](CCC3CCNCC3)[C@H]2C(=O)O)CC1)C(C)C`, the IC50 against Tryptase turned out to be 1214 nM.

On to `N=C(N)N1CCC[C@H](C[C@H]2C(=O)N(C(=O)N3CCN(C(=O)CCCCCc4ccccc4)CC3)[C@@H]2C(=O)O)C1`, for which the half-maximal inhibitory concentration (IC50) on Tryptase is listed as below 1.7 nM. On the same count and under the same terms, then `CC(C)C(OC(=O)N1CCN(C(=O)N2C(=O)[C@H](CCCN)[C@H]2C(=O)O)CC1)C(C)C`, with above 33000 nM. `O=C(O)[C@@H]1[C@@H](CC2CCNCC2)C(=O)N1C(=O)Nc1ccccc1` had an IC50 against Tryptase of 147 nM.

Regarding `O=C(O)[C@@H]1[C@@H](CCC2CCCNC2)C(=O)N1C(=O)N1CCN(C(=O)CCCCCc2ccccc2)CC1` (stereo not given in full), the half-inhibitory concentration (IC50) in [1] was above 33 µM; against Coagulation factor X, above 33 µM; against Plasminogen it was 0.309 µM; against Tryptase, 1.8 nM; against Prothrombin it was above 33 µM; against Serine protease 1, 10 µM. The IC50 in data set [2] was above 33 µM. Take `CC(C)C(OC(=O)N1CCN(C(=O)N2C(=O)[C@H](Cc3cccc(CN)c3)[C@H]2C(=O)O)CC1)C(C)C`: the IC50 at Tryptase is listed as 19 nM. The same measure, in the same setting: the result for `N=C(N)N1CCC(C[C@H]2C(=O)N(C(=O)Nc3ccccc3)[C@@H]2C(=O)O)CC1` reads 515 nM; that for `CC(C)C(OC(=O)N1CCN(C(=O)N2C(=O)[C@H](CC3CCNC3)[C@H]2C(=O)O)CC1)C(C)C` (stereo not given in full), 2605 nM. On to `CC(C)C(OC(=O)N1CCN(C(=O)N2C(=O)[C@H](Cc3ccnc(N)c3)[C@H]2C(=O)O)CC1)C(C)C`, for which the IC50 against Tryptase was found to be 61 nM.

For the compound `CC(C)C(OC(=O)N1CCN(C(=O)N2C(=O)[C@H](Cc3ccc(CN)cc3)[C@H]2C(=O)O)CC1)C(C)C`, the IC50 against Tryptase worked out at 211 nM. Still for that read-out and setting: the result for `CC(C)C(OC(=O)N1CCN(C(=O)N2C(=O)[C@H](CCCCN)[C@H]2C(=O)O)CC1)C(C)C` reads 7 nM. As to `O=C(O)[C@@H]1[C@@H](CC2CCNCC2)C(=O)N1C(=O)N1CCN(C(=O)CCCCCc2ccccc2)CC1`, the figures for the half-life in data set [3] and in [4] were above 2880 min and 2100 min, respectively. This compound also registered an IC50 at Tryptase of 1 nM. In turn, `CC(C)C(OC(=O)N1CCN(C(=O)N2C(=O)[C@H](CCCCCCN)[C@H]2C(=O)O)CC1)C(C)C` returned an IC50 against Tryptase of 32 nM. Still for that read-out and setting: the result for `CC(C)C(OC(=O)N1CCN(C(=O)N2C(=O)[C@H](Cc3ccc(N)nc3)[C@H]2C(=O)O)CC1)C(C)C` reads 1053 nM; that for `CC(C)C(OC(=O)N1CCN(C(=O)N2C(=O)[C@H](CC3CCCNC3)[C@H]2C(=O)O)CC1)C(C)C` (stereo not given in full), 17899 nM. The compound `CC(C)C(OC(=O)N1CCN(C(=O)N2C(=O)[C@H](CCCCCN)[C@H]2C(=O)O)CC1)C(C)C` gave an IC50 at Tryptase of 34 nM. With `N=C(N)N1CCC[C@@H](C[C@H]2C(=O)N(C(=O)N3CCN(C(=O)CCCCCc4ccccc4)CC3)[C@@H]2C(=O)O)C1`, the IC50 against Tryptase was below 1.7 nM. With `CC(C)C(OC(=O)N1CCN(C(=O)N2C(=O)[C@H](CC3CCNCC3)[C@H]2C(=O)O)CC1)C(C)C`, the IC50 in data set [1] is above 33 µM; at Coagulation factor X, above 33 µM; against Plasminogen, 6.22 µM; against Tryptase it was 29 nM; on Prothrombin, above 33 µM; against Serine protease 1, 0.935 µM. Also, the 50% inhibitory concentration (IC50) in [2] turned out to be 7 µM. For `NCCCC[C@H]1C(=O)N(C(=O)N2CCN(C(=O)CCCCCc3ccccc3)CC2)[C@@H]1C(=O)O`, the IC50 against Tryptase was below 1.7 nM. The same measure, in the same setting: then `CC(C)C(OC(=O)N1CCN(C(=O)N2C(=O)[C@H](CCCCN=C(N)N)[C@H]2C(=O)O)CC1)C(C)C` (single isomer, unassigned), with 39 nM. With `Nc1ccccn1` [2-AMINOPYRIDINE], in the data set “physchem”, the pKa came out at 7.

The values above are taken from ChEMBL document CHEMBL1147562, “Synthesis of potent and highly selective nonguanidine azetidinone inhibitors of human tryptase” (Bioorg Med Chem Lett, 2004).
